From patent US10045983B2, “Heteroaryl pyridone and aza-pyrodine compounds” (Genentech, Inc., priority 2011, dated 2018)

Assay: CD69 Whole Blood Assay (CD69 Hu Blood FACS)
Assay type: cell-based, human
Details: Lymphocyte; human whole blood, anti-IgM activated B lymphocytes, FACS; IC70; Table 2 (unit inferred); read-out: CD69 Hu Blood FACS (IC70)
How it was run: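 Compounds tested for blocking B-cell CD69 induction by flow cytometry in human whole blood, with activation via anti-human IgM goat F(ab′)2 crosslinking of surface IgM.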

| Compound | IC70 [nM] |
| --- | --- |
| C[C@H]1COC[C@H](C)N1C(=O)c1ccc(Nc2cc(-c3ccnc(N4CCn5c(cc6c5CC(C)(C)C6)C4=O)c3CO)nn(C)c2=O)nc1 [Example 324, 3-[4-[5-[[5-[(3 S,5 S)-3,5-dimethylmorpholine-4-carbonyl]-2-pyridyl]amino]-1-methyl-6-oxo-pyridazin-3-yl]-3-(hydroxymethyl)-2-pyridyl]-7,7-dimethyl-1,2,6,8-tetrahydrocyclopenta[3,4]pyrrolo[3,5-b]pyrazin-4-one] | 85.8 |
| Cc1nn(C)c2cnc(Nc3cc(-c4ccnc(N5CCn6c(cc7c6CC(C)(C)C7)C5=O)c4CO)cn(C)c3=O)cc12 [Example 325, 3-[4-[5-[(1,3-dimethylpyrazolo[3,4-c]pyridin-5-yl)amino]-1-methyl-6-oxo-3-pyridyl]-3-(hydroxymethyl)-2-pyridyl]-7,7-dimethyl-1,2,6,8-tetrahydrocyclopenta[3,4]pyrrolo[3,5-b]pyrazin-4-one] | 1400 |
| Cc1c2cc(Nc3cc(-c4ccnc(N5CCn6c(cc7c6CC(C)(C)C7)C5=O)c4CO)cn(C)c3=O)ncc2nn1C [Example 326, 3-[4-[5-[(2,3-dimethylpyrazolo[3,4-c]pyridin-5-yl)amino]-1-methyl-6-oxo-3-pyridyl]-3-(hydroxymethyl)-2-pyridyl]-7,7-dimethyl-1,2,6,8-tetrahydrocyclopenta[3,4]pyrrolo[3,5-b]pyrazin-4-one] | 1400 |
| COCCN1CCn2nc(Nc3cc(-c4ccnc(N5CCn6c(cc7c6CC(C)(C)C7)C5=O)c4CO)c(C)n(C)c3=O)cc2C1 [Example 327, 3-[3-(hydroxymethyl)-4-[5-[[5-(2-methoxyethyl)-6,7-dihydro-4H-pyrazolo[1,5-a]pyrazin-2-yl]amino]-1,2-dimethyl-6-oxo-3-pyridyl]-2-pyridyl]-7,7-dimethyl-1,2,6,8-tetrahydrocyclopenta[3,4]pyrrolo[3,5-b]pyrazin-4-one] | 2200 |
| COCCN1CCn2nc(Nc3cc(-c4cncc(N5CCn6c(cc7c6CC(C)(C)C7)C5=O)c4CO)cn(C)c3=O)cc2C1 [Example 328, 3-[4-(hydroxymethyl)-5-[5-[[5-(2-methoxyethyl)-6,7-dihydro-4H-pyrazolo[1,5-a]pyrazin-2-yl]amino]-1-methyl-6-oxo-3-pyridyl]-3-pyridyl]-7,7-dimethyl-1,2,6,8-tetrahydrocyclopenta[3,4]pyrrolo[3,5-b]pyrazin-4-one] | 12.4 |
| COCCN1CCn2nc(Nc3cc(-c4nccc(N5CCn6c(cc7c6CC(C)(C)C7)C5=O)c4CO)cn(C)c3=O)cc2C1 [Example 329, 3-[3-(hydroxymethyl)-2-[5-[[5-(2-methoxyethyl)-6,7-dihydro-4H-pyrazolo[1,5-a]pyrazin-2-yl]amino]-1-methyl-6-oxo-3-pyridyl]-4-pyridyl]-7,7-dimethyl-1,2,6,8-tetrahydrocyclopenta[3,4]pyrrolo[3,5-b]pyrazin-4-one] | 110 |
| Cn1nc(-c2ccnc(N3CCc4c(sc5c4CC(C)(C)C5)C3=O)c2CO)cc(Nc2cc3n(n2)CC(C)(C)OC3)c1=O [Example 330, 3-[4-[5-[(6,6-dimethyl-4,7-dihydropyrazolo[5,1-c][1,4]oxazin-2-yl)amino]-1-methyl-6-oxo-pyridazin-3-yl]-3-(hydroxymethyl)-2-pyridyl]-7,7-dimethyl-1,2,6,8-tetrahydrocyclopenta[3,4]thieno[1,3-c]pyridin-4-one] | 235 |
| CCc1nnc(Nc2cc(-c3ccnc(N4CCn5c(cc6c5CC(C)(C)C6)C4=O)c3CO)cn(C)c2=O)s1 [Example 332, 3-[4-[5-[(5-ethyl-1,3,4-thiadiazol-2-yl)amino]-1-methyl-6-oxo-3-pyridyl]-3-(hydroxymethyl)-2-pyridyl]-7,7-dimethyl-1,2,6,8-tetrahydrocyclopenta[3,4]pyrrolo[3,5-b]pyrazin-4-one] | 91.9 |
| Cn1cc(Nc2cc(-c3ccnc(N4CCc5c(sc6c5CC(C)(C)C6)C4=O)c3CO)cn(C)c2=O)nn1 [Example 333, 3-[3-(hydroxymethyl)-4-[1-methyl-5-[(1-methyltriazol-4-yl)amino]-6-oxo-3-pyridyl]-2-pyridyl]-7,7-dimethyl-1,2,6,8-tetrahydrocyclopenta[3,4]thieno[1,3-c]pyridin-4-one] | 209 |
| Cn1cc(-c2ccnc(-n3ncc4c5c(sc4c3=O)CC(C)(C)C5)c2CO)cc(Nc2cc3n(n2)CC(C)(C)OC3)c1=O [Example 335, 3-[4-[5-[(6,6-dimethyl-4,7-dihydropyrazolo[5,1-c][1,4]oxazin-2-yl)amino]-1-methyl-6-oxo-3-pyridyl]-3-(hydroxymethyl)-2-pyridyl]-7,7-dimethyl-6,8-dihydrocyclopenta[3,4]thieno[1,3-d]pyridazin-4-one] | 52.8 |
| COCc1cc(Nc2cc(-c3ccnc(N4CCc5c(cc6n5CCCC6)C4=O)c3CO)cn(C)c2=O)nn1C [Example 336, 2-[3-(hydroxymethyl)-4-[5-[[5-(methoxymethyl)-1-methyl-pyrazol-3-yl]amino]-1-methyl-6-oxo-3-pyridyl]-2-pyridyl]-3,4,6,7,8,9-hexahydropyrido[3,4-b]indolizin-1-one] | 330 |
| Cc1nc(Nc2cc(-c3ccnc(N4CCn5c(cc6c5CC(C)(C)C6)C4=O)c3CO)cn(C)c2=O)cn1C [Example 337, 3-[4-[5-[(1,2-dimethylimidazol-4-yl)amino]-1-methyl-6-oxo-3-pyridyl]-3-(hydroxymethyl)-2-pyridyl]-7,7-dimethyl-1,2,6,8-tetrahydrocyclopenta[3,4]pyrrolo[3,5-b]pyrazin-4-one] | 613 |
| Cn1cc(-c2ccnc(N3CCn4c(cc5c4CC(C)(C)C5)C3=O)c2CO)cc(Nc2cc3n(n2)CCN(CCC#N)C3)c1=O [Example 338, 3-[2-[[5-[2-(7,7-dimethyl-4-oxo-1,2,6,8-tetrahydrocyclopenta[3,4]pyrrolo[3,5-b]pyrazin-3-yl)-3-(hydroxymethyl)-4-pyridyl]-1-methyl-2-oxo-3-pyridyl]amino]-6,7-dihydro-4H-pyrazolo[155-a]pyrazin-5-yl]propanenitrile] | 17.8 |
| COCCN1CCN(c2ccc(Nc3cc(-c4ccnc(N5CCn6c(cc7c6CC(C)(C)C7)C5=O)c4CO)cn(C)c3=O)nc2)CC1 [Example 339, 3-[3-(hydroxymethyl)-4-[5-[[5-[4-(2-methoxyethyl)piperazin-1-yl]-2-pyridyl]amino]-1-methyl-6-oxo-3-pyridyl]-2-pyridyl]-7,7-dimethyl-1,2,6,8-tetrahydrocyclopenta[3,4]pyrrolo[3,5-b]pyrazin-4-one] | 53.5 |
| COCCN1CCN(c2ccc(Nc3cc(-c4ccnc(N5CCn6c(cc7c6CC(C)(C)C7)C5=O)c4CO)cn(C)c3=O)nc2)[C@@H](C)C1 [Example 340, 3-[3-(hydroxymethyl)-4-[5-[[5-[(2S)-4-(2-methoxyethyl)-2-methyl-piperazin-1-yl]-2-pyridyl]amino]-1-methyl-6-oxo-3-pyridyl]-2-pyridyl]-7,7-dimethyl-1,2,6,8-tetrahydrocyclopenta[3,4]pyrrolo[3,5-b]pyrazin-4-one] | 20.7 |
